The values that follow come from US11338025B2, “Vaccine therapy for treatment of endometrial and ovarian cancer” (The Henry M. Jackson Foundation for the Advancement of …, priority 2016, dated 2022).

Ends that are not written are not given here.

Series [1] concerns tumor-associated lymphocyte (TAL). The conditions noted are these: previous studies (Peoples et al. 1998); cited from earlier work.
Series [2] is described as follows: Local reactions (LR) 48-72 hours after booster. The conditions noted are these: 500 mcg peptide + 250 mcg GM-CSF.
From the text: Therefore, to assess the use of the attenuated E39′ peptide as a booster, E39-vaccinated patients described in Example 1 were randomized to receive either E39 or E39′ as a booster to determine the effect on long-term E39-specific immunity. Patients in the VG received six intradermal E39 injections as described in Example 1 as a primary vaccination schedule (PVS). At six months (B1) and at twelve months (B2) after completion of the PVS, patients received either 500 mcg of E39′ and 250 mcg GM-CSF or 500 mcg E39 and 250 mcg of GM-CSF as a booster.
Local reactions (LR) were recorded 48-72 hours after each booster. Immune response was determined by measurement of E39 specific CTL levels using a Dextramer reagents in accordance with the manufacturer's instructions (Immudex Limited, Copenhagen, Denmark) as previously described (e.g., Tario et al. Cytometry B Clin. Cytom. 2015; 88B:6-20; Baba J. Transl Med. 2010; 8:84), at RO (baseline pre-vaccination), RC1 (1 month after completion of PVS), RC6 (6 months after completion of PVS and before booster), RC7 (1 month after booster) and RC12 (6 months after booster and 12 months after completion of PVS).
A short description of series [3]: Local and systemic toxicity (NCI CTCAE v4.03) of E39+GM-CSF vaccination. The series is classed as in vivo, human. The method, then:
Standard local and systemic toxicities were collected and graded per the National Cancer Institute Common Terminology Criteria for Adverse Events, v4.03 toxicity scale. For the vaccine series (one vaccine/month for six months), patients were monitored closely for one hour after vaccine inoculation with questioning, serial exams and vital signs every 15 minutes to observe for a hypersensitivity reaction. Systemic toxicity and inoculation site local reactions were also determined after 48-72 hours.

Take “E41: FRα-derived immunogenic peptide (FRα 245-253) of previous studies (LLSLALMLL; UniProt P15328 245-253, looked up, fragment)”: in series [1], the “effect on TAL proliferation and anti-tumor function” value is “capable of enhancing tumor-associated lymphocyte (TAL) proliferation and anti-tumor function”.

As for EIWTFSTKV [E39′, EIWTFSTKV], the “average LR” value is recorded as 79.7±14.0 mm in series [2] (B1 booster (6 months after PVS)) and 74.1±11.5 mm in series [2] (B2 booster (12 months after PVS)).

For the substance EIWTHSYKV [E39, EIWTHSYKV], the “tolerability of the vaccine” value in series [3] (E39+GM-CSF, disease-free endometrial and ovarian cancer patients) is reported as “well tolerated”. Further, in series [3] (in vivo), the “Local and systemic toxicities” value is listed as “mild”; the “patients experiencing grade 3 toxicity” value was 1 patient.
